From article PMC8999125, “In Vitro and In Vivo Effects of the Urokinase Plasminogen Activator Inhibitor WX-340 on Anaplastic Thyroid Cancer Cell Lines” (International Journal of Molecular Sciences, 2022)
pIC50: −log10 of the molar value.

Molecular target: T1, urokinase-type plasminogen activator (uPA) (Homo sapiens, UniProt P00749)
T1 construct: gene PLAU; uPA purified from human urine
Assay: colorimetric uPA activity assay (CHEMICON kit), dose-response […] to […]
Assay type: biochemical

pIC50: 7.05
Substance: WX-340
